Assay results as given in PubChem BioAssay (NCI).
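48-hour exposure; five concentrations; linearly interpolated endpoints. GI50: concentration for 50% inhibition of growth. TGI: concentration producing complete growth inhibition.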

What was measured:
Assay in all cases: inhibition of tumour cell growth, NCI panel, 48 h
[1] = system: HT29 colon
[2] = system: SK-MEL-2 melanoma
[3] = system: MCF7 breast
[4] = system: NCI-H226 lung
[5] = system: HCT-15 colon
[6] = system: SNB-19 CNS
[7] = system: HOP-92 NSCLC
[8] = system: U251 CNS
[9] = system: OVCAR-3 ovarian
[10] = system: MDA-MB-435
[11] = system: M14 melanoma
[12] = system: NCI-H522 lung
[13] = system: UO-31 renal
[14] = system: OVCAR-8 ovarian
[15] = system: OVCAR-5 ovarian
[16] = system: NCI/ADR-RES ovarian
[17] = system: ACHN renal
[18] = system: 786-0 renal
[19] = system: SN12C renal
[20] = system: DU-145 prostate
[21] = system: K-562 leukemia
[22] = system: A549 NSCLC
[23] = system: SW-620 colon
[24] = system: A498 renal
[25] = system: SK-MEL-28 melanoma
[26] = system: HCC-2998 colon
[27] = system: TK-10 renal
[28] = system: HL-60(TB) leukemia
[29] = system: SF-539 CNS

Work on CCc1ccc(/C=C2/SC(=S)NC2=O)cc1 yielded a GI50 [1] of 27.9 µM, a TGI [1] of over 80 µM and a GI50 [2] of 16.4 µM. For the same compound, the TGI [2] was 41.3 µM, the GI50 [3] was 21.2 µM and the TGI [3] was over 85.5 µM. The GI50 [4] was 20.3 µM, the TGI [4] was 71.3 µM and the GI50 [5] was 16.9 µM. It also gave a TGI [5] of 39.8 µM, a GI50 [6] of 20.3 µM and a TGI [6] of over 90.3 µM. For the same compound, the GI50 [7] was 3.41 µM, the TGI [7] was 26.4 µM and the GI50 [8] was 18.7 µM. It also gave a TGI [8] of 62.6 µM, a GI50 [9] of 16.9 µM and a TGI [9] of 35.3 µM. For the same compound, the GI50 [10] was 27.5 µM, the TGI [10] was over 100 µM and the GI50 [11] was 24.3 µM. The TGI [11] was 82.8 µM, the GI50 [12] was 15 µM and the TGI [12] was 43.8 µM. It also gave a GI50 [13] of 13.2 µM, a TGI [13] of 33.1 µM and a GI50 [14] of 25.9 µM. For the same compound, the TGI [14] was over 88.8 µM, the GI50 [15] was 24.1 µM and the TGI [15] was 90.6 µM. For the same compound, the GI50 [16] was 25.3 µM, the TGI [16] was 89.4 µM and the GI50 [17] was 27.2 µM. For the same compound, the TGI [17] was over 100 µM, the GI50 [18] was 22.6 µM and the TGI [18] was 81.3 µM. For the same compound, the GI50 [19] was 20.3 µM, the TGI [19] was 81.4 µM and the GI50 [20] was 38.6 µM. It also gave a TGI [20] of over 100 µM, a GI50 [21] of 29.3 µM and a TGI [21] of over 100 µM. The GI50 [22] was 20.8 µM, the TGI [22] was over 80.2 µM and the GI50 [23] was 27.2 µM. The TGI [23] was over 100 µM, the GI50 [24] was 6.15 µM and the TGI [24] was 36.4 µM. It also gave a GI50 [25] of 22.9 µM, a TGI [25] of 79.7 µM and a GI50 [26] of 18.8 µM. The TGI [26] was 45.7 µM, the GI50 [27] was 23.4 µM and the TGI [27] was over 85.4 µM. It also gave a GI50 [28] of 21.6 µM, a TGI [28] of 57 µM and a GI50 [29] of 21 µM. The TGI [29] was 56.6 µM.
